Source: US20240217961A1 (MONOPTEROS THERAPEUTICS, INC., priority 2021, published 2024)
“Also recorded” adds a separate entry of the source.

How the values were obtained:
[1] = Excipient compatibility study of milled API in binary mixtures (40° C./75% R.H. open, 60° C. closed; HPLC, XRPD, appearance); format: physicochemical
Protocol: Samples were set up at each of these two conditions: 40° C./75% R.H. open, and 60° ° C., closed. Three sampling time points (initial, 2 weeks, and 4 weeks) are specified in Table 15.
The API was set up as a control at each time point and each condition. For the pure excipients, only one bulk sample was set up at each condition. They were analyzed at the initial time point and at other time points if degradation of the active substance was observed. For the 15 binary mixtures, triplicate samples were set up at each time point/condition. Two samples were analyzed for purity and XRPD test, and the third one was kept as a contingency sample. The appearance and XRPD of samples under each condition were recorded at each time point.
The binary mixture was set up in duplicate.
Excipient blank controls: Each excipient blank was weighed into a 40 mL clear glass vial as excipient blank control. The excipient blank was set up as a single sample.
API control: Approximate: 13.8 mg of API was weighed into a 40 mL clear glass vial. The API control was set up in duplicate.
All the samples for open condition storage were put into an uncapped clear glass vial. The mouth of vials were covered by aluminum foil with pinholes, to avoid cross-contamination, and then stored in the stability chamber. The samples were stored at each condition 40° C./75% R.H. open and 60° C. close conditions and monitored for physical appearance, XRPD, impurities/related substances and assay at each time point, respectively.
All samples at 40° C./75% R.H., and 60° C. for 2 weeks and 4 weeks, were pulled out and cooled to room temperature for physical appearance, total related substances (TRS) and assay analysis. The diluent was accurately added into 40 ml vials and then the solution was sonicated for 10 minutes to facilitate dissolution of the API. Then 1 mL solution was taken out and centrifuged at 14000 rpm for 5 min for twice to separate some undissolved excipients, and then the concentration of supernatants were analyzed by HPLC instrument. The recovery and TRS results of excipient compatibility study at 40° C./75% R.H., and 60° C. are shown in Table 9, and the results of the complete impurity content and XRPD result are listed in Table 7.

[2] = Hygroscopicity: storage at 92.5% RH for 1 week, weight loss by TGA; format: physicochemical; conditions: for 92.5% RH for 1W (by TGA,%): weight loss by TGA at 145° C. after 92.5% RH for 1 week; for 92.5% RH for 1W, observation: after 92.5% RH for 1 week, Deliqu means deliquescent
[3] = Dynamic Vapor Sorption (DVS) at 25° C.; conditions: for DVS Result 95% RH: 0(120 min)-95% RH(180 min), dm/dt 0.002%
[4] = Solubility at 25° C., 24 h, in SGF, FaSSIF, FeSSIF and water; format: physicochemical
[5] = 70% RH, 25° C., method 50-90-0-50% RH, dm/dt = 0.01%

Molecule: CN1CCCC(CN2c3ccccc3Sc3ccccc32)C1.O=C(O)CCC(=O)O (stereo not shown) [API control]
- Assay (%) ([1]; 40° C./75% RH open, 2 weeks): 100.82%
- TRS (%) (total related substances) ([1]; 40° C./75% RH open, 2 weeks): 0.18%
- XRPD ([1]; 40° C./75% RH open, 2 weeks): No change
- Assay (%) ([1]; 40° C./75% RH open, 4 weeks): 100.08%
- TRS (%) (total related substances) ([1]; 40° C./75% RH open, 4 weeks): 0.12%
- XRPD ([1]; 40° C./75% RH open, 4 weeks): No change
- Assay (%) ([1]; 60° C. close, 2 weeks): 99.70%
- TRS (%) (total related substances) ([1]; 60° C. close, 2 weeks): 0.18%
- XRPD ([1]; 60° C. close, 2 weeks): No change
- Assay (%) ([1]; 60° C. close, 4 weeks): 102.38%
- TRS (%) (total related substances) ([1]; 60° C. close, 4 weeks): 0.13%
- XRPD ([1]; 60° C. close, 4 weeks): No change
- Assay (%) ([1]; Initial 0 day): 100.00%
- TRS (%) (total related substances) ([1]; Initial 0 day): 0.14%

Molecule: CN1CCCC(CN2c3ccccc3Sc3ccccc32)C1.O=C(O)CCCCC(=O)O (stereo not shown) [Adipate]
- 92.5% RH for 1W (by TGA,%) [2]: 0.6% at

Molecule: N[C@@H](CCC(=O)O)C(=O)O [Glutamate]
- DVS Result 95% RH ([3]; 25° C.): 16.84%
- 92.5% RH for 1W (by TGA,%) [2]: 2.4% at

Molecule: CN1CCCC(CN2c3ccccc3Sc3ccccc32)C1.Cl (stereo not shown) [Hydrochloride, reference compound]
- moisture absorbed by DVS ([3]; 25° C. and 95% RH for about 5 hours): 16.9 wt %
- moisture absorbed at 80% RH ([3]; 80% RH at 25° C.): 0.85%
- behaviour under long term humidity conditions ([2]; 25° C., 92.5% RH for one week): deliquescent
- 92.5% RH for 1W, observation [2]: Deliqu

Molecule: CN1CCCC(CN2c3ccccc3Sc3ccccc32)C1.O=C(O)CC(O)C(=O)O (stereo not shown) [Malate]
- 92.5% RH for 1W, observation [2]: Deliqu

Molecule: CN1CCCC(CN2c3ccccc3Sc3ccccc32)C1.O=P(O)(O)O (stereo not shown) [Phosphate]
- DVS Result 95% RH ([3]; 25° C.): 5.18%
- 92.5% RH for 1W (by TGA,%) [2]: 1.3% at

Molecule: O=S(=O)(O)O [Sulfate]
- 92.5% RH for 1W, observation [2]: Discoloration,; also recorded: Agglomerate
- 92.5% RH for 1W (by TGA,%) [2]: 2.3% at 145 °C

Molecule: CN1CCCC(CN2c3ccccc3Sc3ccccc32)C1.O=C(O)C(O)C(O)C(=O)O (stereo not shown) [Tartarate Pattern I]
- 92.5% RH for 1W, observation [2]: Deliqu

Molecule: (S)-mepazine succinate salt
- DVS Result 95% RH ([3]; 25° C.): 1.87%
- 92.5% RH for 1W (by TGA,%) [2]: 0.4% at

Molecule: Fumarate
- DVS Result 95% RH ([3]; 25° C.): 1.29%
- DVS Desorp (%) [3, 5]: 0.13%
- DVS Sorption (%) [3, 5]: 0.13%
- 92.5% RH for 1W (by TGA,%) [2]: 0.3% at
- Solubility 24 h ([4]; FaSSIF, pH 6.5): 9400 µg/mL
- pH of solubility sample ([4]; FaSSIF, pH 6.5, 24 h): 3.63
- pH of solubility sample ([4]; FaSSIF, pH 6.5, 24 h, target concentration 2 mg/mL): 5.48
- Solubility 24 h ([4]; FaSSIF, pH 6.5, target concentration 2 mg/mL): > 2000 µg/mL
- Solubility 24 h ([4]; FeSSIF, pH 5.0): 3400 µg/mL
- pH of solubility sample ([4]; FeSSIF, pH 5.0, 24 h): 4.52
- pH of solubility sample ([4]; FeSSIF, pH 5.0, 24 h, target concentration 2 mg/mL): 4.89
- Solubility 24 h ([4]; FeSSIF, pH 5.0, target concentration 2 mg/mL): > 2000 µg/mL
- Solubility 24 h ([4]; H2O): 3800 µg/mL
- pH of solubility sample ([4]; H2O, 24 h): 3.49
- pH of solubility sample ([4]; H2O, 24 h, target concentration 2 mg/mL): 3.80
- Solubility 24 h ([4]; H2O, target concentration 2 mg/mL): > 2000 µg/mL
- Solubility 24 h ([4]; SGF, pH 2.0): 7500 µg/mL
- pH of solubility sample ([4]; SGF, pH 2.0, 24 h): 2.60
- pH of solubility sample ([4]; SGF, pH 2.0, 24 h, target concentration 2 mg/mL): 1.99
- Solubility 24 h ([4]; SGF, pH 2.0, target concentration 2 mg/mL): > 2000 µg/mL
